Source: ChEMBL document CHEMBL1201862, “PubChem BioAssay data set” (2004)
Activity calls are given as the source filed them.

What was measured:
[1] = blockers of HIV-1 envelope-mediated cell-cell fusion – cherry-pick, dose response (AID 652057); assay type: functional, cell-based
[2] = viability loss in CEM21 cells – cell-based, CellTiter-Glo luminescence, cherry-picked, cytotoxicity control for viral fusion inhibitor project, dose response (AID 652042); assay type: functional;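 also: potency for signal decrease meaning cytotoxicity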
[3] = HIV-1 AD8 envelope cell-cell fusion blockers – cherry-pick, dose response (AID 652062); assay type: functional, cell-based;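 also: luciferase signal from cell-cell fusion driven by HIV-1 clade B AD8 Env; potency is for inhibitors of fusion seen as a drop in luminescence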
[4] = blockers of HIV-1 ZM109 envelope-driven cell-cell fusion – HeLa effector, CEM target cells, luciferase, cherry-pick, dose response (AID 652058); assay type: functional, cell-based;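 also: luciferase signal from HIV-1 Env mediated cell-cell fusion of effector and target cells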
[5] = off-target signal loss in HeLa-CEM21 co-culture – HeLa F-luc CTL cells, cherry-picked, counter-screen for HIV-1 Env fusion inhibitor project, dose response (AID 652040); assay type: functional, cell-based;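 also: potency for signal decrease marking cytotoxic or nonspecific inhibition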
[6] = Trypanosoma cruzi growth suppression in host cells – NIH3T3 host cells, beta-gal luminescence, confirmation (AID 2044); assay type: functional, cell-based;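 also: intracellular parasites grown in NIH/3T3 mouse fibroblasts as host cells; luminescent beta-galactosidase reporter signal from transgenic T. cruzi replicating inside host cells; inhibitors lower the luminescence signal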
[7] = NIH3T3 cell viability loss – ATP luminescence, mouse fibroblasts, counter-screen, dose response (AID 2010); assay type: functional, cell-based;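 also: cells exposed to compound for about 90 hours before reading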
[8] = viability of uninfected HEp-2 cells – cell-based, HTS, cytotoxicity control for RSV inhibitor project, dose response (AID 2410); assay type: functional; settings: human respiratory syncytial virus
[9] = target: Cytochrome P450 3A4 (Homo sapiens, UniProt P08684);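 also: CYP3A4 tested as one member of a cytochrome P450 panel screen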
[10] = target: T1, Protein Tat (Human immunodeficiency virus type 1 group M subtype B (isolate HXB2)(HIV-1), UniProt P04608); assay type: functional;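 also: tat binding to TAR RNA read out by fluorescence polarization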
T1 sequence (P04608 whole entry): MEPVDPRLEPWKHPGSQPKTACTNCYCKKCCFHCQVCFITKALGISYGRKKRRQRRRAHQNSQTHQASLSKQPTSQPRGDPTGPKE

[11] = viability loss in THP-1 monocytes – THP-1 cells, cytotoxicity control for Vif-APOBEC3G degradation inhibitor project, dose response (AID 1117359); assay type: functional; settings: THP-1
[12] = target: T2, Caspase-3 (Homo sapiens, UniProt P42574); assay type: functional;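 also: Dose-response selectivity test against caspase-3 for candidate inhibitors of sentrin-specific proteases (SENPs)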
T2 sequence (P42574 whole entry): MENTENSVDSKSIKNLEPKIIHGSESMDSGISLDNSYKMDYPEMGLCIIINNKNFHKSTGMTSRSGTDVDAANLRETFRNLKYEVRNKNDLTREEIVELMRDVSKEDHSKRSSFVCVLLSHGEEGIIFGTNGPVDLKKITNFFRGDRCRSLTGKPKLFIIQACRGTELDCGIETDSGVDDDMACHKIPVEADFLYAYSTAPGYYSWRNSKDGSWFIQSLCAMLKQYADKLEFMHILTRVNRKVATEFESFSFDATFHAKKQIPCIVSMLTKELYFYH

[13] = target: T3, Sentrin-specific protease 6 (Homo sapiens, UniProt Q9GZR1); assay type: functional;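 also: Luminescence-based dose-response confirmatory assay of SENP6 inhibition, following up an ultra-high-throughput screen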
T3 sequence (Q9GZR1 whole entry): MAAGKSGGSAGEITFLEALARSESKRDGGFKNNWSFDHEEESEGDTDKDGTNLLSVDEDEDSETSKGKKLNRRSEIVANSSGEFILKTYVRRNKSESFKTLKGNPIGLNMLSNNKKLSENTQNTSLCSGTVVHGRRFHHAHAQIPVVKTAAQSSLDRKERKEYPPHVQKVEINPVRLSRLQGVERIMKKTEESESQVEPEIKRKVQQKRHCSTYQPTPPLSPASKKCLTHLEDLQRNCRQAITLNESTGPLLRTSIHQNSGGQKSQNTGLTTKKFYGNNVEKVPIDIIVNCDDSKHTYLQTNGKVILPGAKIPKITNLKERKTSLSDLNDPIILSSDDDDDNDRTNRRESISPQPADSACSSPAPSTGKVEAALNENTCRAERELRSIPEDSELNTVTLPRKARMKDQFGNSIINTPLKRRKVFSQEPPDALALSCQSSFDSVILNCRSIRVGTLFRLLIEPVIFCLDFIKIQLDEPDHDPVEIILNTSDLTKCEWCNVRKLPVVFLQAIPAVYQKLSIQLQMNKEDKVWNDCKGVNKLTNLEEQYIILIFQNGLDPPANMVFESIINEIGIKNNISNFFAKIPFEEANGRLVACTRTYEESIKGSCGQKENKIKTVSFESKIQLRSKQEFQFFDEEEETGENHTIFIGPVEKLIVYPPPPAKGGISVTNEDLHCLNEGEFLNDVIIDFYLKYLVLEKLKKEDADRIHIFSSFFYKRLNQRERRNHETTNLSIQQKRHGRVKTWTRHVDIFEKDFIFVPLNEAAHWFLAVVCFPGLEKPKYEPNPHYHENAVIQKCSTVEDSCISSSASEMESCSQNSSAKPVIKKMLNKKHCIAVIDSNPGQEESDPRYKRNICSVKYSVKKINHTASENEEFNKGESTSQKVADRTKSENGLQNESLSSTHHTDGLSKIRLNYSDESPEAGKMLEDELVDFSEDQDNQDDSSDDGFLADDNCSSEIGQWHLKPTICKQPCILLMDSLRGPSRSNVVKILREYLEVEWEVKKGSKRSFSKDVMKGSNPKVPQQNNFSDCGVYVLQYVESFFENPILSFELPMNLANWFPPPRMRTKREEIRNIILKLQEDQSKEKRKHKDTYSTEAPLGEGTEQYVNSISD

[14] = target: T4, Sentrin-specific protease 8 (Homo sapiens, UniProt Q96LD8); assay type: functional;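 also: luminescence read-out of SENP8 inhibition, dose-response confirmation following an ultra-high-throughput screen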
T4 sequence (Q96LD8 whole entry): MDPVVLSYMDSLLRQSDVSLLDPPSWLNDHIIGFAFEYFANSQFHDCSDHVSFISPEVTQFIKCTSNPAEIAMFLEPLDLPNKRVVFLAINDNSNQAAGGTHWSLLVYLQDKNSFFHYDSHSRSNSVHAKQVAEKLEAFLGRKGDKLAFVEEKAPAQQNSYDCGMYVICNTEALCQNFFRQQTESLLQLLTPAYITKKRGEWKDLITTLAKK

[15] = target: T5, Sentrin-specific protease 7 (Homo sapiens, UniProt Q9BQF6); assay type: functional;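 also: Luminescence-based dose-response confirmation of ultra-high-throughput screening hits, measuring inhibition of SENP7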
T5 sequence (Q9BQF6 whole entry): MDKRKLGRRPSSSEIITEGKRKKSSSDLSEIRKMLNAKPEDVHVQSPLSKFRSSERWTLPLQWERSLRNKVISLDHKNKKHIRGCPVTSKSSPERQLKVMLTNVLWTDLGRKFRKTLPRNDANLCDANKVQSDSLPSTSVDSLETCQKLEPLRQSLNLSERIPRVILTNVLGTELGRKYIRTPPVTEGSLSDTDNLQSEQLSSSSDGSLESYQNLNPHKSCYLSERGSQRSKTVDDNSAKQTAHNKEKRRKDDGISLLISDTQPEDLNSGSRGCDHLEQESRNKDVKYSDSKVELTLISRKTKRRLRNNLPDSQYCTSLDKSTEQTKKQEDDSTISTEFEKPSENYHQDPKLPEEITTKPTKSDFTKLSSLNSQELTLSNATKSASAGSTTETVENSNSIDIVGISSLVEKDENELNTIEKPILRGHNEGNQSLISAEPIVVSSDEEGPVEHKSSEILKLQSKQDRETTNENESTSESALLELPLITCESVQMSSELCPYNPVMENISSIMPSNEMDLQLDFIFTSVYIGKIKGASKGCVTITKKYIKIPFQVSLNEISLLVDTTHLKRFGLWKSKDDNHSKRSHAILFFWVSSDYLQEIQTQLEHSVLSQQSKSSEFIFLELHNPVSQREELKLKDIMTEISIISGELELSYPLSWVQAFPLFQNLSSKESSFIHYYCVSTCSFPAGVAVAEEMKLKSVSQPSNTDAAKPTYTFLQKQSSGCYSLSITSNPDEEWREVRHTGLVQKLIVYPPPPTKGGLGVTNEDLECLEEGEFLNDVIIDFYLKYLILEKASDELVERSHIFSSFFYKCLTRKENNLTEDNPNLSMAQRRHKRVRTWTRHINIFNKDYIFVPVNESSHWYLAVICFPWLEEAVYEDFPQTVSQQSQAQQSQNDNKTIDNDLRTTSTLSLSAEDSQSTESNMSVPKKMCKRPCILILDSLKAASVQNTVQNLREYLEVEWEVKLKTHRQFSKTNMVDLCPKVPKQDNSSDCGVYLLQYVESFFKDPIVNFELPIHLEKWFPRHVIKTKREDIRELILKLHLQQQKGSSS

[16] = test system: SN12K1; assay: cells; assay type: functional; settings: Homo sapiens
[17] = P. falciparum Dd2 growth inhibitors, dose response, SYBR Green, cherry-picked samples (AID 1159567); assay type: functional, cell-based
[18] = toxicity to human hepatoma HepG2 cells – cell-based, cherry-picked samples, cytotoxicity control, dose response (AID 1159577); assay type: functional
[19] = blockers of CRF-binding protein–CRF-R2 complex – cell-based, uHTS hits, 384-well, dose response (AID 651639); assay type: functional, Homo sapiens; settings: read-out: IC50_Mean
[20] = target: T6, Corticotropin-releasing factor receptor 2/Corticotropin-releasing factor-binding protein (Homo sapiens, UniProt P24387+Q13324); assay: activators of CRF receptor 2 with binding protein – uHTS hits, confirmation (AID 602473); assay type: functional; settings: read-out: EC50_Mean
T6 sequence (Q13324 whole entry): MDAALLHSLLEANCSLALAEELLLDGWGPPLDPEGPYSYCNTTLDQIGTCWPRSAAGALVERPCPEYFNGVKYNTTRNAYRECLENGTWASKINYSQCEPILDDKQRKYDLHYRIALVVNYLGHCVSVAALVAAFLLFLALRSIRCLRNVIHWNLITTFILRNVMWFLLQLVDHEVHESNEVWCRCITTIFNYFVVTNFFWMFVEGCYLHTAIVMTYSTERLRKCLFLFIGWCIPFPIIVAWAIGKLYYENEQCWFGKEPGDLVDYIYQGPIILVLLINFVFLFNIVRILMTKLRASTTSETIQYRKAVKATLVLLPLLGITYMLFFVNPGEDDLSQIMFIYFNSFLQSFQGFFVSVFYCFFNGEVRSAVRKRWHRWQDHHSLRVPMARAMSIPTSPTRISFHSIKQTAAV
T6 sequence (P24387 whole entry): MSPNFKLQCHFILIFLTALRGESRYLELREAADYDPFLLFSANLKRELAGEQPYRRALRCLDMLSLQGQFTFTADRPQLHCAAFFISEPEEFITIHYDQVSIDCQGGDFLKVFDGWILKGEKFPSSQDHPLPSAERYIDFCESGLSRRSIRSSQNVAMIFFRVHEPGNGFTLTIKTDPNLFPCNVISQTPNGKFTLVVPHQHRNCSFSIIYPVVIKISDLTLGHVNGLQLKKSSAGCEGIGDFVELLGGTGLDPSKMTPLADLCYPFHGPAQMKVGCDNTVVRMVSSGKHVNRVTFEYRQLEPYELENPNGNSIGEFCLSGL

[21] = target: T6, Corticotropin-releasing factor receptor 2/Corticotropin-releasing factor-binding protein; assay: Dose Response confirmation of uHTS hits for small molecule antagonists of the CRF-binding protein and CRF-R2 receptor complex.; assay type: functional; settings: read-out: IC50_Mean
[22] = cells; assay type: functional

Chain of Cytochrome P450 3A4 (P08684 whole entry): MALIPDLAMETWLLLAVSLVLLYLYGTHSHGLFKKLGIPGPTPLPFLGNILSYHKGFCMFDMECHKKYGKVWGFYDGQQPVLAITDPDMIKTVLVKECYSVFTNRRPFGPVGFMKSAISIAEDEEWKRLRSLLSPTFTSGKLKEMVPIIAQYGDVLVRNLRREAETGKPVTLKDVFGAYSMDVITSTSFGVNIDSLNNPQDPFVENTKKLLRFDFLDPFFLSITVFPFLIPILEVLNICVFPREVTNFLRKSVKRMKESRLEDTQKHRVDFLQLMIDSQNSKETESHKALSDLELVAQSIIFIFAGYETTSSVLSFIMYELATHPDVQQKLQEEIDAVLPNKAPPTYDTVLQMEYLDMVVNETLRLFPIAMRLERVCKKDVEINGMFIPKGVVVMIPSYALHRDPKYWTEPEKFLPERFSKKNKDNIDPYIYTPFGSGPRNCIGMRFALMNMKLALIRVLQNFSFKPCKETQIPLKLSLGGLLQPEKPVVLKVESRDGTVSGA

COC(=O)[C@]12C[C@H](CC(=O)NCc3ccccc3)C(=O)N(CCC3=CCCCC3)C1=C[C@H](C(C)(C)C)O[C@@H]2C
AC50 [1]: 1.76 µM (active)
AC50 [2]: 32.7 µM (active)
AC50 [3]: 4.31 µM (active)
AC50 [4]: 3.2 µM (active)
AC50 [5]: 2.75 µM (active)

CCOC(=O)C1=C(C)N=C2c3ccccc3C(=O)C2C1c1ccc(Cl)cc1 (stereo unspecified)
EC50 [6]: 2.06 µM (active)
EC50 [7]: 29.9 µM (active)
CC50 [8]: 28.7 µM (active)
AC50 [1]: 12 µM (active)
AC50 [2]: 55.8 µM (active)
AC50 [9]: inconclusive
AC50 [4]: < 0.26 µM (active)
AC50 [5]: 16.9 µM (active)

CC(C)(C)NC(=O)/C(=C/c1ccco1)c1ccccc1
IC50 [10]: > 100 µM (inconclusive)

Cc1cccc(C)c1NC(=O)CCS(=O)(=O)c1cccc2nsnc12
IC50 [10]: > 100 µM (active)

CS(=O)(=O)c1ccc(C(=O)Nc2nc(-c3ccco3)c(-c3ccco3)s2)cc1
CC50 [11]: > 40 µM (active)

Cc1cc(N2CCCCC2)n2ncc(-c3ccccc3)c2n1
IC50 [12]: 30.1 µM (active)
IC50 [13]: 13.8 µM (active)
IC50 [14]: 12.4 µM (active)
IC50 [15]: 6.65 µM (active)

CN1CCc2[nH]c3ccccc3c2C1
GI50 [16]: > 100 µM (inactive)

CO[C@H]1CN(C)C(=O)c2cc(NC(=O)c3ccc(-c4ccccc4)cc3)ccc2OC[C@@H](C)NC[C@H]1C
AC50 [17]: 5.5 µM (active)
AC50 [18]: 19.8 µM (active)

Cn1c(=O)c2ncn(CC(=O)Nc3cccc(-c4nc5ccccc5s4)c3)c2n(C)c1=O
IC50 [12]: 21.4 µM (active)
IC50 [13]: 23.4 µM (active)
IC50 [14]: 26.1 µM (active)
IC50 [15]: 15.6 µM (active)

CC(C)=C1C2CCC1C(C(=O)Nc1sc(C)c(-c3ccc(C(C)C)cc3)c1C(N)=O)C2C(=O)O (stereo unspecified)
IC50 [19]: 18.8 µM (active)
EC50 [20]: 15.9 µM (active)
IC50 [21]: 5.03 µM (active)

C[C@H](CO)N1C[C@H](C)[C@@H](CN(C)Cc2cccnc2)Oc2cc(/C=C/c3ccccc3)ccc2S1(=O)=O
AC50 [17]: 4.03 µM (active)
AC50 [18]: > 39 µM (inactive)

Cc1cccc(-c2cc3nc(-c4ccccc4)cc(O)n3n2)c1
IC50 [12]: 3.86 µM (active)
IC50 [13]: 3.88 µM (active)
IC50 [14]: 2.01 µM (active)
IC50 [15]: 2.94 µM (active)

CCCn1c(CNc2ccccc2O)nc2ccccc21
IC50 [22]: 5.79 µM (active)
IC50 [10]: > 100 µM (active)

CN(C(=O)c1ccccc1)c1nc2ccccc2s1
IC50 [12]: 15.6 µM (active)
IC50 [13]: 21.1 µM (active)
IC50 [14]: 50.4 µM (active)
IC50 [15]: 6.81 µM (active)

CN(C)c1cccc(C(=O)OCC(=O)Nc2ccccc2Sc2ccccc2)c1
IC50 [19]: > 20 µM (inactive)
EC50 [20]: > 53 µM (inactive)
IC50 [21]: 13.1 µM (active)

O=C(Nc1ccc(-c2ccccc2)cc1)[C@@H]1[C@@H](CO)[C@@H]2Cn3c(cccc3=O)[C@@H]2N1CC1CCCCC1
AC50 [17]: 3.64 µM (active)
AC50 [18]: > 39 µM (inactive)

Cc1cc(C(F)(F)F)n(-c2nc(C(=O)N/N=C/c3ccc(F)cc3)cs2)n1
IC50 [19]: > 20 µM (inactive)
EC50 [20]: > 53 µM (inactive)
IC50 [21]: 10.7 µM (active)

CCOC(=O)N1CCC(NC(=O)c2ccc(OC)c(CN3CC(=O)N4CCCC4C3=O)c2)CC1 (stereo unspecified)
IC50 [10]: > 100 µM (inconclusive)
